This passage reports ED15, proteolysis and Ki results from EP0536177B1, “THROMBIN INHIBITORS BASED ON THE AMINO ACID SEQUENCE OF HIRUDIN” (MAJESTY (HER) IN RIGHT OF CANADA as represented by THE …, priority 1990, dated 1991).

The subject of one series is rats. As to the kind of experiment: Antithrombotic activity in the arteriovenous shunt model. The format is in vivo, rat. The conditions noted are these: dose which causes a prolongation of the time until occlusion of the shunt by 15 min, 5 min after intravenous administration. How it is done:
The rat anaesthetized with urethane is fixed in supine position on a temperature-controlled heating plate. The right carotid artery and the left jugular vein are catheterized with short polyethylene catheters (Portex, PE 50). The catheters are filled with physiological saline solution and clamped. The two ends of the catheters are connected with a 2-cm glass capillary (internal diameter 1.0 mm) acting as a thrombogenic surface, 5 min after intravenous administration of the test substance or its solvent (control) the clamps occluding the arteriovenous shunt are opened. The blood flowing through the shunt leads to a rapid rise in temperature of the glass capillary from room temperature to body temperature. The temperature of the capillary serves as an indicator for the patency of the shunt. The temperature is measured by means of a NiCrNi-thermo-couple.
Antithrombotic effect of P79 compared to recombinant hirudin in the arteriovenous shunt model in rats 5 min. after intravenous administration (n - number of animals used. Results are shown in Table II below. TABLE II

Series [1] in a line: Stability of polypeptides in plasma against proteolysis. The format is in vitro ADME. The conditions noted are these: incubation at 37°C in reconstituted normal human plasma with thromboplastin and calcium chloride, pH 7.8 (Figure 3). The method, then:
The peptides of this invention were evaluated for in vitro plasma stability against proteolysis.
600 µg of peptide was mixed with 250 µl of reconstituted normal human plasma, 250 µl of thromboplastin, 600 µg of calcium chloride and 50 mM NaHPO4 buffer ph 7.8 to a final volume of 900 µl.
The mixture was incubated at 37°C and 100 µl aliquots were removed at designated time intervals. 20 µl of 10% trichloroacetic acid was added to individual aliquot and centrifuged at 12 X K for 10 minutes. The supernatant was injected on a C18 analytical column and chromatographed by standard elution procedure (i.e. at 60% 0.1% TFA/H2O to 0.1 TFA in CH3CN).

Another series has as its target T1, bovine α-thrombin (Bos taurus, UniProt P00735).
T1 construct: the enzyme (human or bovine α-thrombin 0.4 nM)
The series can be described thus: Amidolytic (fluorogenic) assay of thrombin activity, hydrolysis of Tosyl-Gly-Pro-Arg-AMC. The format is biochemical. The conditions noted are these: mean of three determinations ± SEM, ni: not inhibited.

The target in the next series is T2, human α-thrombin (Homo sapiens, UniProt P00734).
T2 construct: the enzyme (human or bovine α-thrombin 0.4 nM)
Described as above. The conditions noted are these: mean of three determinations ± SEM, ni: not inhibited. It is filed as biochemical. The method, then:
Thrombin-catalyzed hydrolysis of Tos-Gly-Pro-Arg-pNA was monitored at 405 nm on a Varian Cary 2000 double beam spectrophotometer using substrate concentrations of 2.5, 3.5, 5 and 10 µM in a final volume of 1mL. The hydrolytic reactions were performed at 25°C in 0.1 M Tris-HCl buffer, pH 7.8, containing 0.1 M NaCl and 0.1% PEG 6000. The reactions were initiated by addition of the substrate dissolved in 0.1 M Tris-HCl buffer, pH 7.8 to a preincubated solution of enzyme (0.4 or 0.04 nM) and variable concentrations of inhibitor dissolved in the same buffer. Initial velocities were recorded and Ki values were determined graphically by weighted linear regression of Dixon plots in the case of competitive inhibition, or by the method of Baici (Baici, 1981) for hyperbolic inhibition. Fluorogenic assays were conducted using the same conditions and instrument as above operating in the fluorescence mode in the Ratio (λex=383 nm, λem=455 nm). Fluorescence intensities were calibrated with 7-amino-4-methyl coumarin solution of known concentration. The specificity of the synthetic peptides of the present invention for human α-thrombin may also be determined by comparing their relative inhibitory activities towards both human α-thrombin and bovine α-thrombin and trypsin by comparing K1 values obtained in the amidolytic assay of thrombin activity.

Where no end group is shown, it is not given here.

Method for bovine α-thrombin: The hydrolytic reactions were performed at 25°C in 0.1 M Tris-HCl buffer, pH 7.8, containing 0.1 M NaCl and 0.1% PEG 6000. The reactions were initiated by addition of the substrate dissolved in 0.1 M Tris-HCl buffer, pH 7.8 to a preincubated solution of enzyme (0.4 or 0.04 nM) and variable concentrations of inhibitor dissolved in the same buffer. […] Fluorescence intensities were calibrated with 7-amino-4-methyl coumarin solution of known concentration.

As to “[D-Phe^45,Arg^47,ψ(COCH2)CH2CH2CO^47]hirudin^45-65 [P79]”, the ED15 in the series with rats is 0.42 mg/kg. In addition, the proteolysis entry in series [1] is reported as “minimal or no proteolysis”.

In the case of TPKPQSHNDGD [P51, hirudin^45-55], the inhibitory constant (Ki) – broadly, a measure of affinity in units of concentration, obtained from inhibition or displacement – at bovine α-thrombin came to 720 ± 130 nM; on human α-thrombin it was 110 ± 3 nM.
